Assay [1] has as its system Alzheimer's disease transgenic mouse. Nature of the assay: Fear conditioning-contextual test. It counts as in vivo. Particulars: 1 mg/kg of each drug, after the 13 weeks of Example 1. The source says:
(§1) To observe the effects of the combination of EPPS and donepezil, the experimental animal subjected to the Y-maze behavior test for 13 weeks in Example 1 was subjected to a fear conditioning test for testing fearful memory of space and sound.
(§2) The fear conditioning test was divided into a fear conditioning-contextual test that tests fearful memory of space and fear conditioning-cued test that tests fearful memory of sound.
(§3) The test included a pair of sound stimulation (CS(conditioned stimulus), 30 seconds, 85 dB, and 30 kHz) and electric shock (US(unconditioned stimulus), 1 second, and 0.5 mA), which was repeated twice. Each was performed with a term of 90 seconds and the mouse was taken out from the conditioning box 90 seconds after the last electric shock (US). The following tests were performed after 24 hours.
Contextual test: the experimental animal was maintained in the conditioning box and freeze response were measured without providing sound stimulation and electric shock, results of which were used as a scale of conditioned fearful reaction. The freeze reaction was defined as a motionless state, except for breathing.

The test system is the same in assay [2]. Nature of the assay: Fear conditioning-cued test. The conditions noted are these: 1 mg/kg of each drug, after the 13 weeks of Example 1. It counts as in vivo.
Text: as §1, §2, §3
Cued test: To change the context after 24 hours of the contextual test, the mouse was put into a box other than the box used for the contextual test and was provided with a sound stimulation identical to the contextual test (electric shock was not provided) to measure freeze reactions. The results were used as a scale for fear response conditioned to the cues.

For assay [3] the test system is unchanged. Briefly: Y-maze behavior test (spontaneous alternation). It counts as in vivo. Particulars: B6C3-Tg(APPswe, PSEN1dE9) mouse, 1 mg/kg of each drug orally every day, Y-maze once every week for 13 weeks. The protocol: To test the effects of a combination of EPPS and donepezil, a Y-maze behavior test for evaluating learning memory of an Alzheimer's disease transgenic mouse was performed.
10 months old B6C3-Tg(APPswe, PSEN1dE9)85Dbo/Mmjax (The Jackson Laboratory, the U.S.A.) was used as the Alzheimer's disease transgenic mouse, as an experimental animal. The experimental animal was divided into three groups, namely, a donepezil administered group, an EPPS administered group, and a combination of donepezil and EPPS administered group were orally administered with respective drugs everyday in the amounts shown in Table 1 below and the Y-maze test was performed once every week for 13 weeks. As a control group, a transgenic mouse that was not administered with a drug was used as a negative control group and a normal mouse that was not administered with a drug was used as a positive control group.
The Y-maze instrument includes a maze made of a black acrylic board [branches: width 6 cm, length 40 cm, and height 12 cm] having a Y-shape in which all corners were blocked and each branch was disposed at a uniform angle of 120°. […] Frequencies and sequences of the experimental animal moving into each branch were measured to evaluate spontaneous alternation (%). […]

The subject of assay [4] is β-amyloid fibrils or oligomers. Particulars: as disclosed in a research paper; cited from earlier work.

Entries after “also recorded” stand apart in the source; their conditions may differ.

As to `O=S(=O)(O)CCCN1CCN(CCO)CC1` [EPPS, N-(2-hydroxyethyl)piperazine-N′(3-propanesulfonic acid)], the “Average freeze response, contextual test” value in assay [1] worked out at 34.437. In addition, the “Average freeze response, cued test” value in assay [2] was determined as 55.1042. Moreover, the “improvement in cognitive skills (normalized % alternation rate, FIG. 1)” value in assay [3] is “gradual improvement in the cognitive skills compared with that of the donepezil administered group; also recorded: reached the same level of cognitive skills as the donepezil administered group at 10 weeks; also recorded: long-term improvement in cognitive skills but a slower improvement compared with donepezil and a lower improvement compared with the combination of EPPS and donepezil”. For the same molecule, in assay [4], the “effect on accumulation of β-amyloid fibrils or oligomers” value was “inhibits the accumulation of β-amyloid fibrils or oligomers and decomposes the accumulated β-amyloid fibrils or oligomers”.

As for `COc1cc2c(cc1OC)C(=O)C(CC1CCN(Cc3ccccc3)CC1)C2` (stereo not shown) [donepezil, reference compound], in assay [1], the “Average freeze response, contextual test” value was determined as 16.602. Further, the “Average freeze response, cued test” value in assay [2] stood at 58.9167. Also, the “improvement in cognitive skills (normalized % alternation rate, FIG. 1)” value in assay [3] was “initially showed a rapid improvement in cognitive skills, but the improvement reached peak at 5 weeks and decreased at 7 weeks; also recorded: rapid but short-term improvement in cognitive skills”.

The values above are taken from patent US20150005306A1 (priority 2013, published 2015).
